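Five concentrations, 48 hours, 96-well plates. At the TGI there is no net growth.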
Key:
Assay in all cases: NCI-60 cell line screen, 48 h
A498 renal = system: A498 renal
EKVX NSCLC = system: EKVX NSCLC
HOP-62 NSCLC = system: HOP-62 NSCLC
NCI/ADR-RES ovarian = system: NCI/ADR-RES ovarian
SF-539 CNS = system: SF-539 CNS
SK-MEL-28 melanoma = system: SK-MEL-28 melanoma
SN12C renal = system: SN12C renal
SNB-19 CNS = system: SNB-19 CNS
U251 CNS = system: U251 CNS
IGROV1 ovarian = system: IGROV1 ovarian

SMILES: N#CCc1[nH]nc2nc(SCc3ccccc3)nc(N3CCCCC3)c12
- TGI (A498 renal): 73.4 µM
- TGI (EKVX NSCLC): 39.5 µM
- TGI (HOP-62 NSCLC): 35.5 µM
- TGI (NCI/ADR-RES ovarian): 32.3 µM
- TGI (SF-539 CNS): 37.8 µM
- TGI (SK-MEL-28 melanoma): 45.8 µM
- TGI (SN12C renal): 28.7 µM
- TGI (SNB-19 CNS): 34.8 µM
- TGI (U251 CNS): 35.2 µM

SMILES: CC(=O)C1(c2ccccc2)CCCN(C)CC1 (stereo unspecified)
- TGI (A498 renal): > 100 µM
- TGI (HOP-62 NSCLC): > 100 µM
- TGI (IGROV1 ovarian): > 100 µM
- TGI (NCI/ADR-RES ovarian): > 100 µM
- TGI (SK-MEL-28 melanoma): > 100 µM
- TGI (SNB-19 CNS): > 100 µM
- TGI (U251 CNS): > 100 µM

SMILES: O=C1c2ccccc2-c2ccc(O)cc21
- TGI (A498 renal): 41.8 µM
- TGI (EKVX NSCLC): 37.8 µM
- TGI (HOP-62 NSCLC): > 100 µM
- TGI (IGROV1 ovarian): 35.9 µM
- TGI (NCI/ADR-RES ovarian): 84.5 µM
- TGI (SF-539 CNS): 52.8 µM
- TGI (SK-MEL-28 melanoma): 45.8 µM
- TGI (SN12C renal): 36.9 µM
- TGI (SNB-19 CNS): 48.7 µM
- TGI (U251 CNS): 70.3 µM

SMILES: COc1ccc(OC)c2sc(N3C(=O)/C(=C/c4ccccc4S)N=C3c3ccccc3)nc12
- TGI (A498 renal): > 100 µM
- TGI (EKVX NSCLC): > 100 µM
- TGI (HOP-62 NSCLC): > 100 µM
- TGI (IGROV1 ovarian): > 100 µM
- TGI (NCI/ADR-RES ovarian): > 100 µM
- TGI (SF-539 CNS): 85.4 µM
- TGI (SK-MEL-28 melanoma): > 100 µM
- TGI (SN12C renal): 81.9 µM
- TGI (SNB-19 CNS): > 100 µM
- TGI (U251 CNS): 73.8 µM

SMILES: CCn1cc(C(=O)O)c(=O)c2cc(F)c(N3CCN(Cn4c(O)c(N=NC(=O)c5ccncc5)c5cc(Cl)ccc54)CC3)cc21
- TGI (A498 renal): > 100 µM
- TGI (EKVX NSCLC): > 100 µM
- TGI (HOP-62 NSCLC): 55.2 µM
- TGI (IGROV1 ovarian): 61.6 µM
- TGI (NCI/ADR-RES ovarian): > 100 µM
- TGI (SF-539 CNS): 63.1 µM
- TGI (SK-MEL-28 melanoma): > 100 µM
- TGI (SN12C renal): > 100 µM
- TGI (SNB-19 CNS): > 100 µM
- TGI (U251 CNS): 94.4 µM

SMILES: CCC(C)C(NC(=O)C(CCCCN)NC(=O)C(NC(=O)C(CCC(N)=O)NC(=O)C(CCCNC(=N)N)NC(C)=O)C(C)CC)C(=O)NC(Cc1c[nH]c2ccccc12)C(=O)NC(Cc1ccccc1)C(=O)NC(CCC(N)=O)C(=O)NC(CC(N)=O)C(=O)NC(CCCNC(=N)N)C(=O)NC(CCCNC(=N)N)C(=O)NC(CCSC)C(=O)NC(CCCCN)C(=O)NC(Cc1c[nH]c2ccccc12)C(=O)NC(CCCCN)C(=O)NC(CCCCN)C(N)=O (stereo unspecified)
- TGI (A498 renal): > 50 µM
- TGI (EKVX NSCLC): > 50 µM
- TGI (HOP-62 NSCLC): > 50 µM
- TGI (IGROV1 ovarian): > 50 µM
- TGI (NCI/ADR-RES ovarian): > 50 µM
- TGI (SF-539 CNS): > 50 µM
- TGI (SK-MEL-28 melanoma): > 50 µM
- TGI (SN12C renal): > 50 µM
- TGI (SNB-19 CNS): > 50 µM
- TGI (U251 CNS): > 50 µM

SMILES: COC1CCC(OS(C)(=O)=O)CO1 (stereo unspecified)
- TGI (A498 renal): > 100 µM
- TGI (HOP-62 NSCLC): > 100 µM
- TGI (IGROV1 ovarian): > 100 µM
- TGI (SF-539 CNS): > 100 µM
- TGI (SK-MEL-28 melanoma): > 100 µM
- TGI (SNB-19 CNS): > 100 µM
- TGI (U251 CNS): > 100 µM

SMILES: CN1CCC23c4ccccc4NC1C21CCN(C)C3Nc2ccccc21
- TGI (A498 renal): > 375 µM
- TGI (EKVX NSCLC): > 375 µM
- TGI (HOP-62 NSCLC): > 375 µM
- TGI (IGROV1 ovarian): > 375 µM
- TGI (NCI/ADR-RES ovarian): > 375 µM
- TGI (SF-539 CNS): > 375 µM
- TGI (SK-MEL-28 melanoma): > 375 µM
- TGI (SN12C renal): > 375 µM
- TGI (SNB-19 CNS): > 375 µM
- TGI (U251 CNS): > 375 µM

SMILES: S=C(NCCCCCCNC(=S)Nc1c2ccccc2nc2ccccc12)Nc1c2ccccc2nc2ccccc12
- TGI (A498 renal): > 100 µM
- TGI (EKVX NSCLC): > 100 µM
- TGI (HOP-62 NSCLC): > 100 µM
- TGI (IGROV1 ovarian): > 100 µM
- TGI (NCI/ADR-RES ovarian): > 100 µM
- TGI (SF-539 CNS): 99.9 µM
- TGI (SK-MEL-28 melanoma): > 100 µM
- TGI (SN12C renal): > 100 µM
- TGI (SNB-19 CNS): > 100 µM
- TGI (U251 CNS): > 100 µM

SMILES: O=C1c2scnc2-c2nccc3c2c1nc1ccccc13
- TGI (A498 renal): 2.52 µM
- TGI (EKVX NSCLC): > 20.2 µM
- TGI (HOP-62 NSCLC): 8.18 µM
- TGI (IGROV1 ovarian): > 100 µM
- TGI (NCI/ADR-RES ovarian): > 100 µM
- TGI (SF-539 CNS): 1.54 µM
- TGI (SK-MEL-28 melanoma): 2.56 µM
- TGI (SN12C renal): 4.23 µM

SMILES: N=C(N)C(N=Nc1ccccc1)C(=N)N (stereo unspecified)
- TGI (A498 renal): > 100 µM
- TGI (EKVX NSCLC): > 100 µM
- TGI (HOP-62 NSCLC): > 100 µM
- TGI (IGROV1 ovarian): > 100 µM
- TGI (NCI/ADR-RES ovarian): > 100 µM
- TGI (SF-539 CNS): 38.5 µM
- TGI (SK-MEL-28 melanoma): > 100 µM
- TGI (SN12C renal): > 100 µM
- TGI (SNB-19 CNS): > 100 µM
- TGI (U251 CNS): > 100 µM

SMILES: CO[C@@]12C[C@@H](CNC(=O)c3cc(Br)c[nH]3)O[C@@H]1NC(=O)N2
- TGI (A498 renal): > 100 µM
- TGI (EKVX NSCLC): > 100 µM
- TGI (HOP-62 NSCLC): > 100 µM
- TGI (IGROV1 ovarian): > 100 µM
- TGI (NCI/ADR-RES ovarian): > 100 µM
- TGI (SF-539 CNS): > 100 µM
- TGI (SK-MEL-28 melanoma): > 100 µM
- TGI (SN12C renal): > 100 µM
- TGI (SNB-19 CNS): > 100 µM
- TGI (U251 CNS): > 100 µM

SMILES: COc1nc(C#CCCCC#N)nc(OC)n1
- TGI (A498 renal): 37.6 µM
- TGI (EKVX NSCLC): 39.2 µM
- TGI (HOP-62 NSCLC): 48.7 µM
- TGI (IGROV1 ovarian): 41.8 µM
- TGI (NCI/ADR-RES ovarian): > 100 µM
- TGI (SF-539 CNS): 53.7 µM
- TGI (SK-MEL-28 melanoma): 34.8 µM
- TGI (SN12C renal): 36.5 µM
- TGI (SNB-19 CNS): > 100 µM
- TGI (U251 CNS): 26.7 µM

SMILES: Cc1nc(Cl)c(C)c(Cl)n1
- TGI (A498 renal): > 100 µM
- TGI (EKVX NSCLC): > 50.9 µM
- TGI (HOP-62 NSCLC): > 100 µM
- TGI (IGROV1 ovarian): 34.5 µM
- TGI (NCI/ADR-RES ovarian): > 100 µM
- TGI (SF-539 CNS): > 100 µM
- TGI (SK-MEL-28 melanoma): > 100 µM
- TGI (SN12C renal): > 100 µM
- TGI (SNB-19 CNS): > 100 µM
- TGI (U251 CNS): > 100 µM

Reference: PubChem BioAssay (NCI)
